Data as given in patent US20120035125A1, “FULVIC ACID IN COMBINATION WITH FLUCONAZOLE OR AMPHOTERICIN B FOR THE TREATMENT OF FUNGAL INFECTIONS” (Natracine UK Limited, priority 2009, published 2012).
Values after ≈ are worked out from the molar mass of the structure shown.

Assays:
Absidia corymbifera = assay: In vitro susceptibility (MIC, broth microdilution), CHD-FA and amphotericin B; type: cell-based; conditions: Lichtheimia corymbifera
Experimental: (§1) Each culture was grown on Sabouraud agar at 37° C. for 10 days to ensure purity and to allow spores to mature
(§2) RPMI-1640 (Sigma, Dorset, UK) supplemented to 2% glucose (Sigma), buffered with morpholinopropanesulfonic acid (MOPS), (Sigma) and adjusted to pH 7.0 was used as recommended in the Clinical Laboratory Standards M38A document (Reference method for broth dilution antifungal susceptibility testing of conidium-forming filamentous fungi. Approved standard. Document M38-A 2002a. NCCLS, Wayne, Pa. 2002. NCCLS, Wayne, Pa., USA).
(§3) a) All fungi were cultured in ambient air at 35-37° C. on recovery medium (Sabouraud dextrose agar) for 8-10 days before testing.
(§4) b) Inoculum suspensions were prepared from day 8 to 10 day cultures grown on Sabouraud dextrose agar at 37° C. in vented tissue culture flasks to avoid crosscontamination. Spores were harvested by flooding the surface of the growth with 25 ml of sterile phosphate buffered saline plus 0.05% Tween 80. The spore count was adjusted using a counting chamber.
(§5) c) The inoculum was completely suspended by vigorous shaking on a vortex mixer for 15 s. […] Drug-free and cell-free controls were included. (The RPMI medium used in the plates was prepared at either 2× or 4×the final strength to allow for dilution once the inoculum and diluted CHD-FA was added).
(§6) Sterile plastic, disposable, microtitration plates with 96 flat-bottom wells were used.
(§7) a) Column 1 of the microtitration tray was filled with 100 μL of sterile water containing four times the final drug concentration (16 mg/L amphotericin B).
(§8) b) Columns 2-12 were filled with 50 μL of distilled water
(§9) c) 50 μL amounts were taken from wells in column 1 and diluted two-fold by transferring them to column 2 with a multichannel pipette (±2% coefficient of variation). 50 μL samples were then removed from column 2 and transferred to column 3, and so on through to column 10. The last 50 μL of diluted drug is then discarded. Thus, each well in columns 1-10 will contain 50 μL of water containing four times the final antifungal drug concentrations.
(§10) Stock solutions of CHD-FA were produced containing 4%, 2%, 1%, 0.5% and 0.25% of the native compound.
(§11) 100 μL of the diluted CHD-FA was added to microtitration trays in so that row A contains a final dilution of 2% row B, 1%, row C 0.5%, row D 0.25% row E 0.125% and row F diluent only.
(§12) 50 μL of the diluted spore suspension in 4×RPMI was added to all wells. This produces a well containing 200 μL final volume (made up of 50 μL diluted antifungal, 100 μL diluted CHD-FA or diluent, 50 μL of 4×RPMI containing fungal spores)
(§13) All plates were incubated at 37° C. in air in a darkened incubator.
(§14) Plates were read visually with the endpoint taken as the lowest concentration of drug that inhibited growth by 50% of that of the drug free control.

Aspergillus flavus = assay: as above; type: cell-based; conditions: for MIC: Aspergillus flavus
Experimental: as §1, §2, §3, §4, §5, §6, §7, §8, §9, §10, §11, §12, §13, §14

Aspergillus fumigatus = assay: as above; type: cell-based; conditions: for MIC: Aspergillus fumigatus
Experimental: as §1, §2, §3, §4, §5, §6, §7, §8, §9, §10, §11, §12, §13, §14

Aspergillus terreus = assay: as above; type: cell-based; conditions: for MIC: Aspergillus terreus
Experimental: as §1, §2, §3, §4, §5, §6, §7, §8, §9, §10, §11, §12, §13, §14

Fusarium solani = assay: as above; type: cell-based
Experimental: as §1, §2, §3, §4, §5, §6, §7, §8, §9, §10, §11, §12, §13, §14

Aspergillus = conditions: stated to be toxic to the subject; cited from earlier work

For `C[C@@H]1[C@H](O)[C@@H](C)/C=C/C=C/C=C/C=C/C=C/C=C/C=C/[C@H](O[C@@H]2O[C@H](C)[C@@H](O)[C@H](N)[C@@H]2O)C[C@@H]2O[C@](O)(C[C@@H](O)C[C@@H](O)[C@H](O)CC[C@@H](O)C[C@@H](O)CC(=O)O[C@H]1C)C[C@H](O)[C@H]2C(=O)O` [Amphotericin B], which MIC (Absidia corymbifera; Absidia isolate 1) is on record?
The MIC was 0.25 µg/mL (≈ 0.271 µM).

And the MIC (Absidia corymbifera; Absidia isolate 2)?
The MIC was 0.06 µg/mL (≈ 0.0649 µM).

What about the Amphotericin MIC (Aspergillus flavus; A. flavus strain 1, CHD-FA Dilution 0.125) of the same compound?
The Amphotericin MIC was over 4 µg/mL.

What about the “Amphotericin MIC” value (Aspergillus flavus; A. flavus strain 1, CHD-FA Dilution 0.25) of the same compound?
Its value is “No Growth”.

What about the “Amphotericin MIC” value (Aspergillus flavus; A. flavus strain 1, CHD-FA Dilution 0.5) of the same compound?
The value was “No Growth”.

What about the Amphotericin MIC (Aspergillus flavus; A. flavus strain 2, CHD-FA Dilution 0.125) of the same compound?
Its Amphotericin MIC is 0.25 µg/mL.

What about the “Amphotericin MIC” value (Aspergillus flavus; A. flavus strain 2, CHD-FA Dilution 0.25) of the same compound?
Its value is “No Growth”.

What about the “Amphotericin MIC” value (Aspergillus flavus; A. flavus strain 2, CHD-FA Dilution 0.5) of the same compound?
Its value is “No Growth”.

And the MIC (Aspergillus flavus; A. flavus isolate 1)?
Its MIC is 4 µg/mL (≈ 4.33 µM).

And the MIC (Aspergillus flavus; A. flavus isolate 2)?
Its MIC is 0.5 µg/mL (≈ 0.541 µM).

What about the Amphotericin MIC (Aspergillus fumigatus; A. fumigates strain 1, CHD-FA Dilution 0.125) of the same compound?
Its Amphotericin MIC is 0.06 µg/mL.

And the “Amphotericin MIC” value (Aspergillus fumigatus; A. fumigates strain 1, CHD-FA Dilution 0.25)?
Its value is “No Growth”.

What about the “Amphotericin MIC” value (Aspergillus fumigatus; A. fumigates strain 1, CHD-FA Dilution 0.5) of the same compound?
Its value is “No Growth”.

What about the Amphotericin MIC (Aspergillus fumigatus; A. fumigates strain 2, CHD-FA Dilution 0.125) of the same compound?
The Amphotericin MIC was 0.125 µg/mL.

And the “Amphotericin MIC” value (Aspergillus fumigatus; A. fumigates strain 2, CHD-FA Dilution 0.25)?
Its value is “No Growth”.

What about the “Amphotericin MIC” value (Aspergillus fumigatus; A. fumigates strain 2, CHD-FA Dilution 0.5) of the same compound?
Its value is “No Growth”.

What about the MIC (Aspergillus fumigatus; A. fumigatus isolate 1) of the same compound?
The MIC was 0.5 µg/mL (≈ 0.541 µM).

What about the MIC (Aspergillus fumigatus; A. fumigatus isolate 2) of the same compound?
The MIC was 0.25 µg/mL (≈ 0.271 µM).

What about the Amphotericin MIC (Aspergillus terreus; A. terreus strain 1, CHD-FA Dilution 0.125) of the same compound?
Its Amphotericin MIC is 0.25 µg/mL.

What about the “Amphotericin MIC” value (Aspergillus terreus; A. terreus strain 1, CHD-FA Dilution 0.25) of the same compound?
The value was “No Growth”.

What about the “Amphotericin MIC” value (Aspergillus terreus; A. terreus strain 1, CHD-FA Dilution 0.5) of the same compound?
Its value is “No Growth”.

What about the Amphotericin MIC (Aspergillus terreus; A. terreus strain 2, CHD-FA Dilution 0.125) of the same compound?
Its Amphotericin MIC is 0.125 µg/mL.

And the “Amphotericin MIC” value (Aspergillus terreus; A. terreus strain 2, CHD-FA Dilution 0.25)?
Its value is “No Growth”.

And the “Amphotericin MIC” value (Aspergillus terreus; A. terreus strain 2, CHD-FA Dilution 0.5)?
Its value is “No Growth”.

What about the MIC (Aspergillus terreus; A. terreus isolate 1) of the same compound?
The MIC was 0.5 µg/mL (≈ 0.541 µM).

And the MIC (Aspergillus terreus; A. terreus isolate 2)?
Its MIC is 1 µg/mL (≈ 1.08 µM).

What about the “Amphotericin MIC” value (Fusarium solani; Fusarium isolate 2) of the same compound?
The value was 2.0 µg/mL.

And the MIC (Fusarium solani; Fusarium solani, Fusarium isolate 1)?
The MIC was 2 µg/mL (≈ 2.16 µM).

And the “dose required to inhibit Aspergillus” value (Aspergillus)?
The value was 3 mg/L.
